Several values for one entry are separate records, joined by “and”; a condition that tells them apart may be missing. Equal entries are not always repeated. Toxic doses and inconclusive results are not listed.

Consider 14 compounds from PubChem BioAssay AID200 (DTP/NCI, 2004).

This experiment deals with B6C3F1 mice, B16 melanoma ip, median survival T/C. The experiment can be described thus: NCI In Vivo Anticancer Drug Screen. Data for tumor model B16 Melanoma (intraperitoneal) in B6C3F1 mice. The settings on record: endpoint: median survival time, schedule: Q01DX009 (ip), higher = longer survival. Put shortly:
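Mice bearing transplanted tumor were dosed with compound or vehicle, and survival was recorded. Activity is expressed as the treated-group measurement (T) divided by the vehicle control measurement (C).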

The mark [1] stands for this setting: dose: 3.12 mg/kg/injection, vehicle: water.
The mark [2] stands for this setting: dose: 6.25 mg/kg/injection, vehicle: water.
The mark [3] stands for this setting: dose: 12.5 mg/kg/injection, vehicle: saline with Tween-80.
[4] abbreviates: dose: 12.5 mg/kg/injection, vehicle: saline.
Where [5] appears, read: dose: 25.0 mg/kg/injection, vehicle: saline.
Where [6] appears, read: dose: 50.0 mg/kg/injection, vehicle: saline.
Where [7] appears, read: dose: 6.25 mg/kg/injection, vehicle: saline.
Where [8] appears, read: dose: 25.0 mg/kg/injection, vehicle: Klucel (hydroxypropylcellulose) (HPC).
Where [9] appears, read: dose: 50.0 mg/kg/injection, vehicle: Klucel (hydroxypropylcellulose) (HPC).
[10] abbreviates: dose: 100.0 mg/kg/injection, vehicle: Klucel (hydroxypropylcellulose) (HPC).
Where [11] appears, read: dose: 25.0 mg/kg/injection, vehicle: saline with Tween-80.
[12] abbreviates: dose: 50.0 mg/kg/injection, vehicle: saline with Tween-80.
Where [13] appears, read: dose: 100.0 mg/kg/injection, vehicle: saline with Tween-80.

`NC(=O)/C=C/c1c[nH]c2nccnc12`: the T/C by setting is: (dose: 1.56 mg/kg/injection, vehicle: water) 86 % of control; under setting [1], 93 % of control; under setting [2], 95 % of control; (dose: 12.5 mg/kg/injection, vehicle: water) 102 % of control; (dose: 25.0 mg/kg/injection, vehicle: water) 108 % of control.

Consider `Cc1cnc(/C=N\NC(N)=S)c2cccc(N)c12`, for which the T/C is, setting by setting: (dose: 3.0 mg/kg/injection, vehicle: saline with Tween-80) 108 % of control; (dose: 6.0 mg/kg/injection, vehicle: saline with Tween-80) 116 % of control.

With `C1CC[N-]CC1.[Cl][Pt+2][Cl].[NH-]C1CC1`, the T/C is, setting by setting: (dose: 1.56 mg/kg/injection, vehicle: saline with Tween-80) 117 % of control; under setting [1], 106 % of control; under setting [2], 116 % of control; under setting [3], 159 % of control.

Turning to `COCCOC(=O)Cc1ccc(OC)c(OC)c1`, the T/C was 108 % of control under setting [4]; 98 % of control under setting [5]; 104 % of control under setting [6]; 87 % of control (dose: 400.0 mg/kg/injection, vehicle: saline).

For the compound `NC(=O)Oc1cc(OC(N)=O)cc(N(CCCl)CCCl)c1`, the T/C runs as follows: (dose: 3.12 mg/kg/injection, vehicle: Klucel (hydroxypropylcellulose) (HPC)) 115 % of control; (dose: 6.25 mg/kg/injection, vehicle: Klucel (hydroxypropylcellulose) (HPC)) 107 % of control; under setting [7], 91 % of control; under setting [4], 96 % of control; under setting [8], 170 % of control; under setting [5], 104 % of control. The T/C was 104 % of control under setting [6] and 102 % of control (dose: 100.0 mg/kg/injection, vehicle: saline).

In the case of `CCCCCCCCCCCCCCCC(=O)Nc1ccn(C2OC(CO)C(O)C2O)c(=O)n1` (stereo unspecified), the T/C is 98 % of control under setting [7], 157 % of control under setting [5] and 180 % of control under setting [6].

Turning to `CC(C)CC(NC(=O)CF)C(=O)O` (stereo unspecified), the T/C is, setting by setting: (dose: 0.31 mg/kg/injection, vehicle: saline) 95 % of control; (dose: 0.63 mg/kg/injection, vehicle: saline) 93 % of control; (dose: 1.25 mg/kg/injection, vehicle: saline) 90 % of control; (dose: 2.5 mg/kg/injection, vehicle: saline) 89 % of control; (dose: 5.0 mg/kg/injection, vehicle: saline) 96 % of control; (dose: 10.0 mg/kg/injection, vehicle: saline) 100 % of control.

With `COc1cc2cc(c1Cl)N(C)C(=O)CC(O)C1(C)OC1C(C)C1CC(O)(NC(=O)O1)C(OC)/C=C/C=C(C)C2OC` (stereo unspecified), the T/C reads like this: (dose: 4.0 micrograms/kg/injection, vehicle: distilled water + alcohol) 105 % of control; (dose: 8.0 micrograms/kg/injection, vehicle: distilled water + alcohol) 96 % of control; (dose: 16.0 micrograms/kg/injection, vehicle: distilled water + alcohol) 102 % of control; (dose: 32.0 micrograms/kg/injection, vehicle: distilled water + alcohol) 88 % of control.

As for `C(CC1CO1)C1CO1` (stereo unspecified), the T/C was 94 % of control (dose: 2.5 mg/kg/injection, vehicle: Klucel (hydroxypropylcellulose) (HPC)); 101 % of control (dose: 5.0 mg/kg/injection, vehicle: Klucel (hydroxypropylcellulose) (HPC)); 101 % of control (dose: 10.0 mg/kg/injection, vehicle: Klucel (hydroxypropylcellulose) (HPC)); 111 % of control (dose: 20.0 mg/kg/injection, vehicle: Klucel (hydroxypropylcellulose) (HPC)); 107 % of control (dose: 40.0 mg/kg/injection, vehicle: Klucel (hydroxypropylcellulose) (HPC)); 98 % of control (dose: 80.0 mg/kg/injection, vehicle: Klucel (hydroxypropylcellulose) (HPC)).

For the compound `CNc1nc(NC)nc(NC)n1`, the T/C by setting is: (dose: 12.5 mg/kg/injection, vehicle: Klucel (hydroxypropylcellulose) (HPC)) 91 % of control; under setting [8], 96 % of control; under setting [9], 100 % of control; under setting [10], 106 % of control.

With `NC(=O)c1ccc(N)nc1`, the T/C (dose: 0.5 mg/kg/injection, vehicle: saline) was 113 % of control; the T/C (dose: 1.0 mg/kg/injection, vehicle: saline) is 119 % of control; the T/C (dose: 2.0 mg/kg/injection, vehicle: saline) was 117 % of control.

`CN1CCC(c2ccccc2)(c2ccccc2)C(=O)C1`: the T/C by setting is: under setting [11], 97 % of control; under setting [12], 90 % of control; under setting [13], 93 % of control and 95 % of control.

On to `CC(Cc1ccc(O)cc1)NCC(O)c1ccc(O)c(O)c1` (stereo unspecified), for which the T/C is 97 % of control under setting [3]; 92 % of control under setting [11]; 100 % of control under setting [12]; 101 % of control under setting [13]; 101 % of control (dose: 200.0 mg/kg/injection, vehicle: saline with Tween-80); 111 % of control (dose: 400.0 mg/kg/injection, vehicle: saline with Tween-80).

`CC(C)(C)OC(=O)NCCCCC(NC(=O)OCc1ccccc1)C(=O)O` (stereo unspecified): the T/C is, setting by setting: under setting [8], 109 % of control; under setting [9], 94 % of control; under setting [10], 98 % of control.
